{"source": "patent US20140357512A1", "about": "“HISTONE DEACETYLASE (HDAC) BIOMARKERS IN MULTIPLE MYELOMA” (priority 2013, published 2014)", "test_system": "human myeloma cell line MM.1S", "experiment": "SILAC acetylated-lysine peptide profiling, HDAC inhibitor vs DMSO (light/heavy ratio)", "format": "cell-based", "text": "An embodiment of the invention comprises utilizing the SILAC method in order to quantitate changes in protein expression between two or more populations of cells. The SILAC method is a technique based on mass spectrometry that detects differences in protein abundance among samples using non-radioactive isotopic labeling. The SILAC method is known in the art, and described in detail in Ong et al., “Stable Isotope Labeling by Amino Acids in Cell Culture, SILAC, as a Simple and Accurate Approach to Expression Proteomics”, Molecular & Cellular Proteomics, vol. 1, pp. 376-386 (2002), which is incorporated herein by reference in its entirety.\nBriefly, the SILAC method involves growing two populations of cells in cell culture. The first population of cells is grown in growth media containing normal amino acids (“normal media”). The second population of cells is grown in media lacking a standard essential amino acid (such as lysine), but is then supplemented with a non-radioactive, isotopically labeled form of that essential amino acid (such as lysine labeled with ^13C atoms, rather than normal ^12C atoms), which is called “heavy media”. When the two populations of cells are each growing in the medium, they incorporate the amino acids into all of their proteins. The growth of cells maintained in the heavy media is no different from that in normal media. All peptides containing the heavy amino acids are heavier than their normal counterparts. The cells from each of the two populations of cells are lysed. The lysates from each of the two cell populations are then combined. The combined cell lysates are then analyzed by mass spectrometry. Pairs of chemically identical peptides of different stable isotope composition can be differentiated in a mass spectrometer due to their difference in mass. The ratio of peak intensities in the mass spectrum for such peptide pairs reflects the abundance ratio for the two proteins.\nThis example describes SILAC studies that were performed to compare the effects of three different HDAC inhibitors (Compound A, Compound B, and tubastatin A) to a control on a human multiple myeloma cell line. The HDAC inhibitors were also compared amongst themselves to determine differences in their effects.\nA human myeloma cell line MM.1S was grown using either ^12C (light) or ^13C (heavy) lysine containing culture medium. The “heavy” cells were treated with DMSO as the control, and the “light” cells were treated with a single HDAC inhibitor at 37° C. for 6 hours. The heavy and light cells were lysed, and the lysates were mixed in 1:1 ratio and digested with the protease trypsin. The acetylated lysine containing peptides (due to the action of the HDAC inhibitor) in the digested peptide pool were captured by a non-specific anti-acetylated lysine antibody cocktail (the antibodies identify both light and heavy acetylated peptides), and subjected to mass spectrometry analysis in order to identify thousands of individual peptides.\nThousands of peptides were identified in pairs (^12C and ^13C) due to their known mass differences. The amino acid sequence and quantitative ratio (Light/Heavy) of a given peptide in two differentially treated cell lysates were then determined and annotated with their possible protein (gene) sources.\nAs stated above, three HDAC inhibitors (Compound A, Compound B, and Tubastatin A) were used. Thus, the SILAC method was performed three times, with a different HDAC inhibitor compared to a control each time. Accordingly, there are three pairs of quantitative data in the table below, i.e., Compound A:DMSO, Compound B:DMSO, and Tubastatin A:DMSO. A cut-off of 1.30 fold of change (increase or decrease) was then used to determine “changed” or “+” in the table, and any peptides with a fold of change less than 1.3 fold were determined to be “unchanged” or “0” in the table. Those peptides that were not identified were marked as “NA” in the table. […]", "data": [{"compound": "O=C(NO)c1cnc(NC2(c3cccc(F)c3)CCCCC2)nc1", "note": "[Compound B, 2-((1-(3-fluorophenyl)cyclohexyl)amino)-N-hydroxypyrimidine-5-carboxamide]", "values": [{"measurement": "light to heavy ratio (L/H ratio), log 2 scale, acetylated peptide VGDK(ac)[…] (SEQ ID NO: 773)", "setting": "10 kDa heat shock protein mitochondrial [70], gene HSPE1, drug:DMSO", "result": 0.00}, {"measurement": "light to heavy ratio (L/H ratio) of acetylated peptide IQEVLK(ac)HAR (SEQ ID NO: 264)", "setting": "39S ribosomal protein L20 mitochondrial [26], MRPL20, drug:DMSO", "result": 0.00, "unit": "log 2"}, {"measurement": "light to heavy ratio (L/H ratio) of acetylated peptide KDVHMPK(ac)HPELADK (SEQ ID NO: 353)", "setting": "40S ribosomal protein S10 [31], RPS10, drug:DMSO", "result": 0.56, "unit": "log 2"}, {"measurement": "light to heavy ratio (L/H ratio) of acetylated peptide NK(ac)[…] (SEQ ID NO: 559)", "setting": "40S ribosomal protein S17 [49], gene RPS17, RPS17L, inhibitor:DMSO", "result": 0.00, "unit": "log 2"}, {"measurement": "light to heavy ratio (L/H ratio) of acetylated peptide IDK(ac)PILK (SEQ ID NO: 506)", "setting": "60S ribosomal protein L8 [177], gene RPL8, inhibitor:DMSO", "result": 0.00, "unit": "log 2"}, {"measurement": "light to heavy ratio (L/H ratio) of acetylated peptide GPLDK(ac)WR (SEQ ID NO: 622)", "setting": "60S ribosomal protein L10-like [208], gene RPL10L, inhibitor:DMSO", "result": 0.00, "unit": "log 2"}, {"measurement": "light to heavy ratio (L/H ratio), log 2 scale, acetylated peptide YMVK(ac)SCGK (SEQ ID NO: 811)", "setting": "60S ribosomal protein L10 [78], gene SNORA70, RPL10, drug:DMSO", "result": 0.00}, {"measurement": "light to heavy ratio (L/H ratio), log 2 scale, acetylated peptide VDEVK(ac)STIK (SEQ ID NO: 805)", "setting": "60S ribosomal protein L10a [152], gene RPL10A, drug:DMSO", "result": 0.00}, {"measurement": "light to heavy ratio (L/H ratio) of acetylated peptide VITEEEK(ac)NFK (SEQ ID NO: 522)", "setting": "60S ribosomal protein L13 [174], gene RPL13, inhibitor:DMSO", "result": 0.00, "unit": "log 2"}, {"measurement": "light to heavy ratio (L/H ratio) of acetylated peptide K(ac)FAYLGR (SEQ ID NO: 614)", "setting": "60S ribosomal protein L13a [134], gene SNORD32A, RPL13A, SNORD33, SNORD34, inhibitor:DMSO", "result": 0.00, "unit": "log 2"}, {"measurement": "light to heavy ratio (L/H ratio), log 2 scale, acetylated peptide LAHEVGWK(ac)[…] (SEQ ID NO: 812)", "setting": "60S ribosomal protein L13a [148], gene SNORD32A, RPL13A, SNORD33, SNORD34, drug:DMSO", "result": 0.00}, {"measurement": "light to heavy ratio (L/H ratio) of acetylated peptide GHK(ac)FHHTIGGSR (SEQ ID NO: 519)", "setting": "60S ribosomal protein L15 [179], gene RPL15, inhibitor:DMSO", "result": 0.00, "unit": "log 2"}, {"measurement": "light to heavy ratio (L/H ratio), log 2 scale, acetylated peptide SFVK(ac)[…] (SEQ ID NO: 770)", "setting": "60S ribosomal protein L27 [73], gene RPL27, drug:DMSO", "result": 0.00}, {"measurement": "light to heavy ratio (L/H ratio), log 2 scale, acetylated peptide YSVDIPLDK(ac)TVVNK (SEQ ID NO: 807)", "setting": "60S ribosomal protein L27 [93], gene RPL27, drug:DMSO", "result": 0.00}, {"measurement": "light to heavy ratio (L/H ratio) of acetylated peptide NCSSFLIK(ac)R (SEQ ID NO: 558)", "setting": "60S ribosomal protein L28 [19], gene RPL28, inhibitor:DMSO", "result": 0.00, "unit": "log 2"}, {"measurement": "light to heavy ratio (L/H ratio) of acetylated peptide IHGVGFK(ac)K (SEQ ID NO: 542)", "setting": "60S ribosomal protein L31 [39], gene RPL31, inhibitor:DMSO", "result": 0.00, "unit": "log 2"}, {"measurement": "light to heavy ratio (L/H ratio), log 2 scale, acetylated peptide LNK(ac)AVWAK (SEQ ID NO: 808)", "setting": "60S ribosomal protein L31 [70], gene RPL31, drug:DMSO", "result": 0.00}, {"measurement": "light to heavy ratio (L/H ratio) of acetylated peptide LWSK(ac)AIFAGYK (SEQ ID NO: 538)", "setting": "60S ribosomal protein L35a [8], gene RPL35A, inhibitor:DMSO", "result": 0.00, "unit": "log 2"}, {"measurement": "light to heavy ratio (L/H ratio) of acetylated peptide KIEISQHAK(ac)YTCSFCGK (SEQ ID NO: 351)", "setting": "60S ribosomal protein L37a [36], RPL37A, drug:DMSO", "result": 0.41, "unit": "log 2"}, {"measurement": "light to heavy ratio (L/H ratio) of acetylated peptide VMEHFIK(ac)LYK (SEQ ID NO: 276)", "setting": "78 kDa glucose-regulated protein [268], HSPA5, drug:DMSO", "result": 0.00, "unit": "log 2"}, {"measurement": "light to heavy ratio (L/H ratio) of acetylated peptide AK(ac)[…] (SEQ ID NO: 266)", "setting": "78 kDa glucose-regulated protein [326], HSPA5, drug:DMSO", "result": 0.00, "unit": "log 2"}, {"measurement": "light to heavy ratio (L/H ratio) of acetylated peptide FK(ac)[…] (SEQ ID NO: 333)", "setting": "116 kDa U5 small nuclear ribonucleoprotein component [790], EFTUD2, drug:DMSO", "result": "−0.99", "unit": "log 2"}, {"measurement": "L/H ratio of acetylated peptide", "setting": "(ac)AQLGK(ac)LLK (SEQ ID NO: 421), NEDD8-activating enzyme E1 regulatory subunit [6], NAE1", "result": 0.70, "unit": "log 2"}, {"measurement": "L/H ratio of acetylated peptide", "setting": "(ac)MEDYTK(ac)IEK (SEQ ID NO: 374), Isoform 2 of Cyclin-dependent kinase 1 [6], CDK1", "result": "−0.51", "unit": "log 2"}, {"measurement": "light to heavy ratio (L/H ratio) of acetylated peptide, log 2 scale", "setting": "(ac)SIGVPIK(ac)[…] (SEQ ID NO: 224), Small nuclear ribonucleoprotein Sm D3 [8], SNRPD3", "result": 0.00}, {"measurement": "L/H ratio of acetylated peptide", "setting": "(ac)SNMEK(ac)HLFNLK (SEQ ID NO: 376), Charged multivesicular body protein 1b [6], CHMP1B", "result": 0.85, "unit": "log 2"}, {"measurement": "L/H ratio of acetylated peptide", "setting": "(ac)SSNECFK(ac)CGR (SEQ ID NO: 379), Isoform 1 of Cellular nucleic acid-binding protein [8], CNBP", "result": "−0.82", "unit": "log 2"}, {"measurement": "light to heavy ratio (L/H ratio) of acetylated peptide, log 2 scale", "setting": "(ac)SVFGK(ac)LFGAGGGK (SEQ ID NO: 143), Charged multivesicular body protein 4b [6], CHMP4B", "result": 0.00}, {"measurement": "L/H ratio of acetylated peptide", "setting": "(ac)[…](ac)DLK (SEQ ID NO: 437), Isoform 2 of Prothymosin alpha [15], PTMA, MIR1244-3, MIR1244-2, MIR1244-1", "result": 0.61, "unit": "log 2"}, {"measurement": "L/H ratio of acetylated peptide", "setting": "(ac)[…](ac)SAR (SEQ ID NO: 464), Voltage-dependent anion-selective channel protein 1 [12], VDAC1", "result": "−0.78", "unit": "log 2"}, {"measurement": "L/H ratio of acetylated peptide", "setting": "ACK(ac)LAIR (SEQ ID NO: 463), Transitional endoplasmic reticulum ATPase [696], VCP", "result": "−0.58", "unit": "log 2"}, {"measurement": "L/H ratio of acetylated peptide NLQK(ac)EVIHR (SEQ ID NO: 125)", "setting": "ACOX1 [504], log 2 scale, drug vs DMSO", "result": 0.00}]}]}
